molecular target: T1, Genome polyprotein [2420-3010] (HCV, UniProt P26663); assay: Inhibition Assay; conditions: pH 7.3; 25 °C
T1 construct: 2420-3010
T1 sequence (P26663 2420-3010): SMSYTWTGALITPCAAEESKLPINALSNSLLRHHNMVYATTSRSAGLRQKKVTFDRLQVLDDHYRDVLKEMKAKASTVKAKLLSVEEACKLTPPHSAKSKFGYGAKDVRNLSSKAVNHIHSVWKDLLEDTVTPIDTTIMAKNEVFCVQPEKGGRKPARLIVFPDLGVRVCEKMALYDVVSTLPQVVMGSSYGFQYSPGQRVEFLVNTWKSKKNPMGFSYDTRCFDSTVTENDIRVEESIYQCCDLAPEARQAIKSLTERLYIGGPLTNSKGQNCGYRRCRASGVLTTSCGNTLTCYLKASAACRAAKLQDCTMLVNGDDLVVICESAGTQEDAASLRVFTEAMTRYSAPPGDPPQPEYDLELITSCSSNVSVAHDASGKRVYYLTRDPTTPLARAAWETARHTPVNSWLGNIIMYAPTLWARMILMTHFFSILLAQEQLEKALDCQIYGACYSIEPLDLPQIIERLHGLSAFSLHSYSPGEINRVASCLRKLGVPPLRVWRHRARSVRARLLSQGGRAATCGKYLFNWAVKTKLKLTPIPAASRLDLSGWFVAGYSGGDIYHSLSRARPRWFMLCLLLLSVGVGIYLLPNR
Experimental: To measure inhibition of the enzymatic activity of the HCV NS5B RNA-dependent RNA polymerase by the nucleoside triphosphate compounds of the present invention, a radiolabeled nucleotide incorporation assay was used. […] The assay was then terminated by the addition of 500 mM EDTA (50 μL). The reaction mixture was transferred to a Millipore DE81 filter plate and the incorporation of labeled CTP is determined using Packard TopCount.

Question: Which IC50 does the source give for `C[C@@]1(N=[N+]=[N-])[C@H](O)[C@@H](COP(=O)(O)OP(=O)(O)OP(=O)(O)O)O[C@H]1c1cnc2c(N)ncnn12` [US9457039, 22] here?
Answer: 0.93 µM

Question: `C[C@@]1(N)[C@H](O)[C@@H](COP(=O)(O)OP(=O)(O)OP(=O)(O)O)O[C@H]1c1cnc2c(N)ncnn12` [US9457039, 23] was tested. Which IC50 did it give?
Answer: 6.7 µM

Question: Which IC50 does the source give for `C[C@@]1(N)[C@H](O)[C@@H](COP(=O)(O)OP(=O)(O)OP(=O)(O)O)O[C@H]1c1ccc2c(N)ncnn12` [US9457039, 24] here?
Answer: 1.1 µM

Question: With `C[C@@]1(N)[C@H](O)[C@@H](COP(=O)(O)OP(=O)(O)OP(=O)(O)O)O[C@H]1c1cnn2c(N)ncnc12` [US9457039, 25] as the compound, how does the IC50 read?
Answer: 51 µM

Reference: BindingDB's records for patent US9457039 (Merck Sharp & Dohme Corp, 2016)
